One series concerns the target D2 (Homo sapiens (Human), UniProt P14416). As to the kind of experiment: D2 binding assay ([3H] 7-OH-DPAT, HEK293 D2L membranes). Conditions: numeric values. On the procedure: D2 Binding Assay Protocol
The testing compounds were diluted with DMSO, starting at 2 mM, with 8-points and 5-fold serial dilutions. droperidol was diluted with DMSO, starting at 0.2 mM, with 8-points and 4-fold serial dilutions.
1 μL of a compound of the present disclosure and the reference compound (Table O) was transferred to an assay plate. 1 μL of droperidol was transferred to an assay plate according to the plate map for nonspecific binding (Low control: LC). 1 μL of DMSO was transferred to an assay plate according to the plate map for total binding (High control: HC). Following a plate map, 100 μL of the membrane stock solutions and radio ligand were added into the plate. The plates were sealed and shaken with 300 rpm.
(§1) Unifilter-96 GF/C filter plates were soaked with 50 μL of 0.3% PEI per well for about 0.5 hours at room temperature. When the binding assays were complete, the reaction mixture was filtered through the GF/B filter plates using Perkin Elmer Filtermate Harvester, and each plate was washed 4 times with cold wash buffer. The filter plates were dried for 1 hour at 50° C. After drying, the bottom of the filter plate wells were sealed using Perkin Elmer Unifilter-96 backing seal tape. 50 μL of Perkin Elmer Microscint 20 cocktail was added. The top of the filter plates were sealed with Perkin Elmer TopSeal-A sealing film.
^3H trapped on filters were counted using Perkin Elmer MicroBeta2 Reader. Inhibition constants were calculated using the following equation: […]
The data was analyzed using Prism 5. The model used was “log(inhibitor) vs. response—Variable slope” to fit the data and calculate IC50. The IC50 was then converted to Ki using the following equation: Ki=IC50/(1+L/Kd), wherein L is the radioligand concentration in the reaction system; Kd is the affinity of radioligand to the receptor. As shown in Table Q Compound No. 7 has a lower affinity for D2 when compared to Compounds A-2, A-3, A-4, and A-5.

The next series has as its target 5-HT2C (Homo sapiens (Human), UniProt P28335). As to the kind of experiment: 5-HT2C binding assay ([3H]-Mesulergine, HEK293 membranes). The procedure:
5-HT2C Binding Assay Protocol
The testing compounds were diluted with DMSO, starting at 2 mM, with 8-points and 5-fold serial dilutions.
1 μL of a compound of the present disclosure the reference compound (Table J) was transferred to an assay plate. […] 1 μL of DMSO was transferred to an assay plate according to the plate map for total binding (High control: HC).
as §1, with “GF/C” for “GF/B”
(§2) ^3H trapped on filters were counted using Perkin Elmer MicroBeta2 Reader. Inhibition constants were calculated using the following equation:
[formula] The data was analyzed using Prism 5. The model used was “log(inhibitor) vs. response—Variable slope” to fit the data and calculate IC50. The IC50 was then converted to Ki using the following equation: Ki=IC50/(1+L/Kd), wherein L is the radioligand concentration in the reaction system; Kd is the affinity of radioligand to the receptor.

The next series has as its target H1 (Homo sapiens (Human), UniProt P35367). As to the kind of experiment: H1 binding assay ([3H]pyrilamine, HEK293 stable cell line membranes). The procedure:
Example 25. H1 and 5-HT2A Binding Assay Protocol
(§3) The testing compounds were diluted with DMSO, starting at 2 mM, with 8-points and 5-fold serial dilutions. Ketanserin and Pyrilamine were diluted with DMSO, starting at 0.2 mM, with 8-points and 5-fold serial dilution.
(§4) 1 μl of a compounds of the present disclosure and either reference compound (Table C) were transferred to assay plates. 1 μl of 0.2 mM Ketanserin or Pyrilamine was transferred to an assay plate according to the plate map for nonspecific binding (Low control: LC). 1 μl of DMSO was transferred to an assay plate according to plate map for total binding (High control: HC).
(§5) 100 μlof membrane stocks were dispensed into the plates, following the plate map. 100 of radio ligand was added. The plates were sealed and shaken at 300 rpm at room temperature for 1 hour. The Unifilter-96 GF/C filter plates were soaked with 50 of 0.3% PEI per well for at least 0.5 hour at room temperature.
(§6) When the binding assays were complete, the reaction mixture was filtered through GF/C plates using Perkin Elmer Filtermate Harvester, and then each plate was washed 4 times with cold wash buffer. The filter plates were dried for 1 hour at 50 degrees. After drying, the bottom of the filter plate wells were sealed using Perkin Elmer Unifilter-96 backing seal tape. 50 μl of Perkin Elmer Microscint 20 cocktail was added. The top of the filter plates were sealed with Perkin Elmer TopSeal-A sealing film.
as §2
(§7) [formula] The data was analyzed using Prism 5. The model used was “log(inhibitor) vs. response—Variable slope” to fit the data and calculate IC50. The IC50 was then converted to Ki using following equation: Ki=IC50/(1+L/Kd). L is the radioligand concentration in the reaction system; Kd is the affinity of radioligand to the receptor.

In the next series the target is 5-HT2A (Homo sapiens (Human), UniProt P28223). Put plainly: 5-HT2A binding assay ([3H]-Ketanserin, HEK293 stable cell line membranes). On the procedure: H1 and 5-HT2A Binding Assay Protocol
as §3, §4, §5, §6, §2, §7

Series [1] is described as follows: Human clearance and half-life projections (allometric scaling from monkey clearance). The conditions noted are these: for T1/2 (h), projected human half-life: one-compartmental model, T1/2=0.693×(predicted Vd/predicted CL); for CL (mL/min/kg), projected human clearance: single species scaling from monkey clearance. The procedure:
The biological activity of the compounds of the present disclosure may be determined utilizing projected human clearance (CL) and half-life in humans. An allometric scaling method, using a single species scaling from monkey clearance was used to project clearance. Human volume of distribution (Vd) was projected from animal Vd, adjusted for differences in plasma protein binding and assuming similar unbound Vd across species. Human half-life (T1/2) was calculated based on a one-compartmental model, using a relationship of T1/2=0.693×(predicted Vd/predicted CL).
An allometric scaling method, using a single species scaling from monkey clearance was used to project clearance. Human volume of distribution (Vd) was projected from animal Vd, adjusted for differences in plasma protein binding and assuming similar unbound Vd across species. Human half-life (T1/2) was calculated based on a one-compartmental model, using a relationship of T1/2=0.693×(predicted Vd/predicted CL).

Another series concerns male Wistar rats. As to the kind of experiment: SCORE EEG/EMG sleep-wake monitoring: sleep continuity, number of arousals, depth of sleep. Type of series: in vivo, rat. Conditions: for cumulative increase in Total Sleep Time (NREM+REM sleep) relative to baseline: 30 mg/kg PO, 30 hours post-treatment. On the procedure:
Example 30. Experimental Details and Methods for Determining Sleep Continuity, Number of Arousals, and Depth of Sleep
Treatment detail plots (see, e.g., FIGS. 1-10) depict pre- and post-treatment time series plot ±30 hours before and after treatment at CT-18 (6-hours after lights-off) or pre- and post-treatment time series plots 29 hr before and 31 hr after treatments at CT-5 (5-hours after lights-on). Treatment occurred at the beginning of the hour marked by a triangle on the abscissa of the plot. Variables were computed in hourly bins.
All data were plotted as group mean±SEM (see, e.g., FIGS. 1-10). The gray shaded area encompasses the vehicle treatment mean±SEM. Along the x-axis, time of treatment is marked by a triangle unless noted otherwise. Along the x-axis, light/dark bars indicate lights on/off.
Adult, male Wistar rats (approximately 270 g at time of surgery, Charles River Laboratories) were administered dexmedetomidine 25 μg/kg and anesthetized (2% isoflourane in 95/5 oxygen, to effect) and surgically prepared with a cranial implant that permitted chronic electro-encephalogram (EEG) and electromyogram (EMG) recording. Body temperature and locomotor activity were monitored via a miniature transmitter (Minimitter Series PDT4000 E-Mitter, Bend, Oreg.) surgically placed in the abdomen during the same anesthetic event when the cranial portion was implanted. The cranial implant consisted of miniature stainless steel screws (2 frontal [+3.9 AP from bregma, 2.0 ML], 2 occipital [−6.4 AP, 5.5 ML], and 1 ground placed sagittaly and posterior to lambda) for EEG recording. Two Teflon-coated multi-strand stainless steel wires were positioned under the nuchal trapezoid muscles for EMG recording. All leads were soldered to a miniature connector (Omnetics, Minneapolis, Minn.) and gas sterilized with ethylene oxide prior to surgery. The implant assembly was affixed to the skull by the combination of the EEG recording screws, cyanoacrylate applied between the hermetically sealed implant connector and skull, and a UV-curing dental acrylic. An analgesic (meloxicam 1 mg/kg IP) was administered 1 day prior to surgery and daily for 2 days post-surgery. Neosporin with lidocaine was applied topically to the peri-implant margin. At least three weeks were allowed for surgical recovery prior to any data collection.
Rats were housed individually within specially modified Innovive® cages equipped with a custom-built ultra-low-torque slip-ring commutator and a customized Innovive® polycarbonate cage-top. These cages were located on shelves of a modified stainless steel animal rack that was pre-wired for physiological and behavioral data collection. Food and water were available ad libitum and the ambient temperature was 22±1° C. A 24-hr light-dark cycle (LD 12:12) was maintained throughout the study using LED lighting strips. Light intensity averaged 35 lux at mid-level inside the cage. Relative humidity averaged 50% approximately. Animals were undisturbed for two days before and after each treatment.
Sleep and wakefulness were determined using SCORE™—a Linux and Windows-10 real-time computer-based sleep-wake and physiological monitoring system. Validation of the SCORE™ sleep stage identification algorithm in rodents and the system's utility in pre-clinical drug discovery and evaluation have been previously described (Edgar et al. Psychopharmacology 1991, 105, 374; Gilmour et al., Neuropharmacology 2012, 64, 224; McCarthy et al., 2016, Neuropharmacology 108, 415; Olive et al., J. Pharmacology &Experimental Therapeutics 1998 285, 1073; Phillips et al, Neuropharmacology 2012, 62, 1359; Seidel et al. J Pharmacology &Experimental Therapeutics 1995, 275, 263; Van Gelder et al. Sleep 1991, 14, 48). […]

Several values for one entry are separate records, joined by “and”; a condition that tells them apart may be missing. Equal entries are not always repeated.

D2, sequence (P14416 whole entry): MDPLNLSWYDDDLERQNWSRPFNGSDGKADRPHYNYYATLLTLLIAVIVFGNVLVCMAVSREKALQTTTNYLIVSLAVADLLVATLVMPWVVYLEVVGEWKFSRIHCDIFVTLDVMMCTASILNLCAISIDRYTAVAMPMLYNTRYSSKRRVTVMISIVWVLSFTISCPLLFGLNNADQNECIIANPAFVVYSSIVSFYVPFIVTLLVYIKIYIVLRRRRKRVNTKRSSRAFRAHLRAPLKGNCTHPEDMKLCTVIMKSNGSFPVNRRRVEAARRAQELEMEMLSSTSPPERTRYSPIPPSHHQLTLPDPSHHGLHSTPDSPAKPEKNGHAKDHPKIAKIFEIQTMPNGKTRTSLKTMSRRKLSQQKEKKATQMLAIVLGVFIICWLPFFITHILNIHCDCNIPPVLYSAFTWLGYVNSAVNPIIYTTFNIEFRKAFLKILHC
5-HT2A, sequence (P28223 whole entry, species assumed): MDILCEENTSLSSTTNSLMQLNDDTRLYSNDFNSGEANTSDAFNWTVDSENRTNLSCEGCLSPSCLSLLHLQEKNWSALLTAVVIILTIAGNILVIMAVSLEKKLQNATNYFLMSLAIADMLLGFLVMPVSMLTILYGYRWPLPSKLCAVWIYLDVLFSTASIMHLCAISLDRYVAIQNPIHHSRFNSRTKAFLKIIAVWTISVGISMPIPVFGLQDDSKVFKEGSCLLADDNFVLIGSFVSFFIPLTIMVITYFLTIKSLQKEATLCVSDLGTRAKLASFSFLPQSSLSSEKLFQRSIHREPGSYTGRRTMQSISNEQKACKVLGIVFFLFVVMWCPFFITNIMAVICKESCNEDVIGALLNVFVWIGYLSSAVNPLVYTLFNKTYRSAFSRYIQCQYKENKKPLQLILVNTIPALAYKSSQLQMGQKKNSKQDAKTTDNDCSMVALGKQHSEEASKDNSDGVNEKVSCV
H1, sequence (P35367 whole entry): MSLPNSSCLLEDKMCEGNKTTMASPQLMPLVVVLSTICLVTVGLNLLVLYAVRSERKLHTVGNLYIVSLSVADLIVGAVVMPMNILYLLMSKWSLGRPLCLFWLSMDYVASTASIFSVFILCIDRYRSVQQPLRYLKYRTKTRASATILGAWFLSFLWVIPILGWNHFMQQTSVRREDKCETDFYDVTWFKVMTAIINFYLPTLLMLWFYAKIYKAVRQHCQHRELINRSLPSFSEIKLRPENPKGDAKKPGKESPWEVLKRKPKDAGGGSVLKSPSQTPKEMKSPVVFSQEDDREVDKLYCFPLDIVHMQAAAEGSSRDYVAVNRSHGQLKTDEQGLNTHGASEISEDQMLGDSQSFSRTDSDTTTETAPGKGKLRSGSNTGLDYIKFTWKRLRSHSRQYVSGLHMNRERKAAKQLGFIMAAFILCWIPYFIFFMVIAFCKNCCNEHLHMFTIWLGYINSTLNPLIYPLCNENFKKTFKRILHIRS
5-HT2C, sequence (P28335 33-458): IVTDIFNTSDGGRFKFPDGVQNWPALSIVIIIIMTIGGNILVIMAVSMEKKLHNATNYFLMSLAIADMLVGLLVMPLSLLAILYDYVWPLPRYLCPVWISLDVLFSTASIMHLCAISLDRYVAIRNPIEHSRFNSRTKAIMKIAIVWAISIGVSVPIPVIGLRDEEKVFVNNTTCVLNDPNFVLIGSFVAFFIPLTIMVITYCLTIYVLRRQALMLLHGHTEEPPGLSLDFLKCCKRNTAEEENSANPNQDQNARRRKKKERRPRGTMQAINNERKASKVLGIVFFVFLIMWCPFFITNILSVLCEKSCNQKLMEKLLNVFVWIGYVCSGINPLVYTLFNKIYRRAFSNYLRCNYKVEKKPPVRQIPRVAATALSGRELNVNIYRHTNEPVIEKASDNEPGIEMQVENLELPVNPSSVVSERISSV

A word on the Ki: it is the dissociation constant of the complex between target and ligand, obtained from inhibition or displacement. Consider `Cc1ccc2c(c1)N=C(N1CCN(CC(C)(C)C(=O)O)CC1)c1cc(C)ccc1O2` [A-2, 3-(4-(2,8-dimethyldibenzo[b,f][1,4]oxazepin-11-yl)piperazin-1-yl)-2,2-dimethylpropanoic acid, reference compound], for which the Ki on D2 is 0.06 µM; on 5-HT2C (numeric values) it was 0.265 µM.
The like results for `Cc1ccc2c(c1)Oc1ccc(C)cc1C(N1CCN(CC(C)(C)C(=O)O)CC1)=N2` [A-3, 3-(4-(2,7-dimethyldibenzo[b,f][1,4]oxazepin-11-yl)piperazin-1-yl)-2,2-dimethylpropanoic acid, reference compound] were, in that order, 0.152 µM and 0.125 µM.
For `Cc1ccc2c(c1)N=C(N1CCN(CC(C)(C)C(=O)O)CC1)c1ccc(C)cc1O2` [A-4, 3-(4-(3,8-dimethyldibenzo[b,f][1,4]oxazepin-11-yl)piperazin-1-yl)-2,2-dimethylpropanoic acid, reference compound], in that order: 1.9 µM and 0.772 µM.
The like results for `CC(C)(CN1CCN(C2=Nc3ccccc3Oc3ccccc32)CC1)C(=O)O` [A-5, 3-(4-(dibenzo[b,f][1,4]oxazepin-11-yl)piperazin-1-yl)-2,2-dimethylpropanoic acid, reference compound] were, in that order, 2.87 µM and 0.68 µM.
`Cc1ccc2c(c1)Oc1cc(F)ccc1N=C2N1CCN(CC(C)(C)C(=O)O)CC1` [Compound No. 6, 3-(4-(7-fluoro-3-methyldibenzo[b,f][1,4]oxazepin-11-yl)piperazin-1-yl)-2,2-dimethylpropanoic acid]: the Ki at H1 (Table E, class symbols) is 0.001 to 0.025 µM; at 5-HT2A (Table F, class symbols), 0.001 to 0.025 µM; on 5-HT2C (Table L, class symbols) it was more than 0.5 µM. Further, in series [1], the “T1/2 (h), projected human half-life” value is 12 to 25 h. Also, the “CL (mL/min/kg), projected human clearance” value (from here on “CL (mL/min/kg)”) in series [1] is on record as 0.3 mL/min/kg.
For `CC(C)(CN1CCN(C2=Nc3ccccc3Cc3ccccc32)CC1)C(=O)O` [Compound No. 8, 3-(4-(11H-dibenzo[b,e]azepin-6-yl)piperazin-1-yl)-2,2-dimethylpropanoic acid], the Ki on H1 (Table E, class symbols) was 0.025 to 0.05 µM; on H1 (numeric values), 0.046 µM; at 5-HT2A (Table F, class symbols), more than 0.05 µM; at 5-HT2A (numeric values), ~0.087 µM and 0.087 µM; at 5-HT2C (Table L, class symbols), more than 0.5 µM. Besides, the “T1/2 (h), projected human half-life” value in series [1] was 2 to 4 h. The “CL (mL/min/kg)” value in series [1] turned out to be 1.8 mL/min/kg. Besides, in the series on male Wistar rats (3 mg/kg PO, CT-18, male Wistar rats), the “normalized EEG delta power (slow wave activity) during nonREM sleep” value is “increases in EEG slow wave activity in nonREM sleep”. Besides, in the series on male Wistar rats (10 mg/kg PO, CT-5, male Wistar rats), the “reductions in the number of transitions from sleep to wake per hour relative to controls” value was “up to 50%”. The “increase in sleep bout-length per hour relative to vehicle control” value in the series with male Wistar rats (10 mg/kg PO, CT-18, male Wistar rats) was “approximately 4 fold”. For the same compound, the “cumulative increase in Total Sleep Time (NREM+REM sleep) relative to baseline” value in the series with male Wistar rats (CT-18, male Wistar rats, listed as Compound 8) was 70 min; in the series on male Wistar rats (CT-18, male Wistar rats, listed as compound 8) it was “approximately 70 minute”.
As to `CC(C)(CN1CCN(C2=Nc3ccccc3Oc3cc(C(F)F)ccc32)CC1)C(=O)O` [Compound No. 36, 3-(4-(3-(difluoromethyl)dibenzo[b,f][1,4]oxazepin-11-yl)piperazin-1-yl)-2,2-dimethylpropanoic acid], in series [1], the “T1/2 (h), projected human half-life” value is 14 to 50 h and the “CL (mL/min/kg)” value turned out to be 0.4 mL/min/kg.

Values taken from patent US11046651B2, “Piperazine substituted azapine derivatives and uses thereof” (Alairion, Inc., priority 2019, dated 2021).
